According to patent US20230357349A1, “GLUCAGON DELIVERY VIA ENZYMATIC ACTUATION” (University of Notre Dame du Lac, priority 2022, published 2023):
Blank lines part the entries; values can stand above or below the molecule they belong to. Peptide text beside a SMILES is read from it. * marks the point of attachment. Palmitoyl = CCCCCCCCCCCCCCCC(=O)*; Decanoyl = CCCCCCCCCC(=O)*

Legend:
[1] = Oscillatory rheology of 1% w/v PA samples in buffers of various pH; assay type: physicochemical; conditions: for storage modulus G′: 1% w/v, 1% strain, 10 rad/s
Experimental: The C10-V2A2E2 peptide (SEQ ID NO: 4) amphiphile was first dissolved in DI water at a concentration of 2% (w/v). The solution was adjusted to pH 7.4 using 0.1 M HCl, and then mixed with an equal volume of citrate-phosphate buffer (150 mM buffer+150 mM NaCl) at different pH (4, 5, 6, 7, 8) to form a gel at a concentration of 1% (w/v) in a final buffer concentration of 150 mM.
(§1) Dynamic oscillatory rheology was performed on a TA Instruments Discovery HR-2 rheometer fitted with a Peltier stage using a parallel plate geometry with diameter of 25 mm to test the mechanical properties of all peptide hydrogels. Samples were prepared at a concentration of 1% (w/v) in buffers of different pH or glucose concentration, as described above, and measured 24 h after gel preparation. An amplitude sweep was first performed to determine the linear viscoelastic range for each hydrogel condition, and then a frequency sweep was performed at constant strain. Subsequently, a time-sweep (1% strain, 10 rad/s angular frequency) was performed for all hydrogels to measure and compare the storage modulus (G′).
Vial inversion affords a crude means to inspect bulk differences in apparent hydrogelation. By contrast, rheological testing enables quantitative insights into the mechanical and dynamic properties of these materials. Oscillatory rheology was thus performed to quantify the observed pH-dependent differences in hydrogelation. Samples were first assessed with a strain sweep to determine the linear viscoelastic range, and then gel-forming samples were subjected to a frequency sweep to verify the range of oscillatory frequency rates wherein the storage modulus (G′) exceeded the viscous/loss modulus (G″).
The G′ values for samples at each pH were compared at a constant strain of 1% and frequency of 10 rad/s. When comparing G′ values across the full range of pH explored (n=2 gels/sample), pH-dependent mechanical properties were clearly evident (FIG. 4E, FIG. 7). […] Samples prepared at pH 8 had G′ measurements at the lower limit of instrument sensitivity.

[2] = pH recorded by microelectrode submerged in PA/GOx hydrogel samples; assay type: physicochemical; conditions: 24 h, began at pH 7.4
[3] = Oscillatory rheology of 1% w/v PA with GOx at various glucose concentrations; assay type: physicochemical; conditions: pH 7.4 start, 24 h
Experimental: The C10-V2A2E2 peptide amphiphile was first dissolved in DI water at a concentration of 2% (w/v). The solution was adjusted to pH 7.4 using 0.1 M HCl, and then mixed with an equal volume of 300 mM NaCl solution containing 440 U/mL GOx and different glucose concentration (0, 100, 200, 300, 400 mg/dL) to achieve final glucose concentrations of 0, 50, 100, 150, and 200 mg/dL and final peptide concentration of 1% (w/v).
as §1
After pH-dependent self-assembly and gelation was established, glucose-dependent gelation was explored through the inclusion of GOx to actuate glucose into a pH stimulus. One benefit of hydrogelation of this material at 1% w/v is the significant hydrated and interconnected porosity (FIG. 9A-D) to enable encapsulation of proteins like GOx to drive gelation in response to glucose. Samples of C10-V2A2E2 were prepared at 1% w/v in buffer at pH 7.4, with glucose added to achieve concentrations ranging from 0 to 200 mg/dL (0 to 11.1 mM). These ranges of glucose were selected to span typical physiological glucose levels in the healthy state and extend down to levels corresponding to hypoglycemia. Following equilibration for 24 h, samples were assessed grossly for gelation by vial inversion (FIG. 10A), as performed in pH-dependent gelation studies. […] The material prepared with 100 mg/dL glucose was very viscous but slowly flowed upon inversion, while those prepared at 0 mg/dL and 50 mg/dL were not self-supported on inversion.
Measurements were collected as before for gels prepared in each of the different glucose-containing buffers. The value of G′ increased with increasing levels of glucose, as follows: 10.2 Pa (0 mg/dL), 19.0 Pa (50 mg/dL), 29.5 Pa (100 mg/dL), 206.6 Pa (150 mg/dL), and 2.4 kPa (200 mg/dL). Given results of pH-dependent gelation for C10-V2A2E2 PA, it was expected that inclusion of GOx would actuate increased glucose level into a local reduction in pH driving hydrogelation. […] The fixed and finite glucose concentrations within these small volume hydrogels may somewhat limit direct comparisons with concentrations for their use in a physiological setting, as a replenishable glucose supply could further stiffen the materials through enhanced pH reduction.

[4] = pH-dependent release of encapsulated 3 kDa FITC-dextran to screen PA sequences; assay type: physicochemical; conditions: 3 kDa FITC-dextran release; pH 7 minus pH 5 at 5 hr
Excerpt: GOx conversion of physiological levels of glucose to yield gluconic acid can lead to a microenvironmental pH in the range of ˜4-5.6. Accordingly, a molecular design was envisioned bearing the typical saturated alkyl chain and β-sheet-forming sequence coupled to glutamic acid as the hydrophilic domain; the pKa of its carboxylate R-group (˜4.5) can shift upward in the range of 4.5-6 due to aggregation effects from PA self-assembly. […] Different PA sequences were synthesized to vary the alkyl tail length (C10 and C16) and valine (V)-alanine (A) β-sheet sequence (V2A2, VA3, A2) with a conserved hydrophilic head group (E2). The intention of screening this small set of molecules was to probe pH-responsive release to determine the optimal balance of attractive and repulsive forces required for the envisioned application of assembly at normal glucose (i.e., low pH actuated by GOx) but disassembly and glucagon release in low glucose conditions (i.e., neutral-buffered physiological pH). […] The selected sequence has a shorter C10 alkyl segment than commonly used in most reported PA materials. The V2A2 sequence is thought to be effective for β-sheet hydrogen bonding, while still being shorter than most commonly explored sequences. […] Thus, a reduction in cohesive forces from a shorter alkyl segment and a 4-residue β-sheet forming segment was thought to enable more rapid responsiveness dependent on the charge state of the glutamic acid residues.
Hydrogels were prepared in all cases in a pH 5 buffer at 1% w/v to ensure initial gelation. […] It is noted that catalase was added to these formulations in order to catalyze the conversion of the toxic GOx byproduct, H2O2, into H2O and O2 in advance of in vivo application, as is commonly done to reduce toxicity for other GOx-based glucose-responsive materials.

[5] = system: Streptozotocin (STZ) diabetic mice; assay: Prophylactic hypoglycemia prevention after insulin overdose in diabetic mice
Experimental: To assess the ability of this technology to act in a preventative role to limit the onset and severity of hypoglycemia, a mouse model was established. Male C57BL6/J mice, aged 8 weeks, were induced to be diabetic by the destruction of pancreatic β-cells using a single intraperitoneal (i.p.) injection of streptozotocin (STZ, Cayman Chemical) at a dose of 150 mg/kg, according to published dosing protocols. […] Insulin-deficient diabetes was verified at 9-13 days following STZ treatment using handheld blood glucose meters (CVS brand) to ensure unfasted blood glucose (BG) levels of 600+ mg/dL. These glucometers measure blood glucose values in the range of 20-600 mg/dL. For convention in presenting data, values of “high” are plotted as 600 mg/dL, while values of “low” are plotted as 20 mg/dL.
Mice were fasted overnight for a period of 9 h, after which time BG was again measured. Mice having a fasted BG<450 mg/dL were triaged and removed from further study. Remaining mice were dosed with basal insulin detemir (Levemir®, Novo Nordisk) via subcutaneous (s.c.) injection at a dose of 0.5 IU/kg in a total injection volume of 100 μL. […] This material formulation was verified to be stable following extrusion through a syringe into a pH 7 buffer containing 100 mg/dL glucose. Blood glucose was monitored serially following treatment, which for purposes of data visualization was set as t=0 min. At 2 h following administration of treatments, hypoglycemia was induced by i.p. injection of AOF recombinant human insulin (Gibco) at a dose of ˜2.5 IU/kg in 100 μL of saline. BG levels were monitored for an additional 3 h after insulin overdose to monitor the onset of, and recovery from, hypoglycemia. […] In total n=9 mice per group were assessed by these methods, performing all treatments in two separate experiments on different mouse cohorts at different times and combining the data for analysis here. Mice were fasted for the duration of the study but had continuous access to water. […] Statistical testing between treatment and control groups was performed using one-way ANOVA with Tukey multiple comparison post-hoc testing (GraphPad Prism v9.0).
STZ mice were fasted to increase sensitivity to both insulin and glucagon and limit confounding data arising from variable eating patterns. After a 9 h fast, basal insulin detemir (Novo Nordisk, Levemir®) was administered to correct blood glucose to within the normoglycemic range for a healthy mouse (˜180-200 mg/dL) to simulate insulin-dependent blood glucose control in diabetes.

[6] = in vivo; cited from earlier work
[7] = humans; cited from earlier work

Molecule: CCCCCCCCCC(=O)N[C@H](C(=O)N[C@@H](C)C(=O)N[C@@H](C)C(=O)N[C@@H](C)C(=O)N[C@@H](CCC(=O)O)C(=O)N[C@@H](CCC(=O)O)C(N)=O)C(C)C [C10—VA3E2] (Decanoyl-VAAAEE-NH2)
Δ Release % (pH 7-5 at 5 hr) [4]: 39.1%

Molecule: dasiglucagon
blood glucose relative to buffer control ([5]; 30 min after treatment, before insulin challenge): sharply increased | blood glucose at endpoint of study ([5]; 300 min, 3 h after insulin challenge, n=9): 65.6 ± 10.8 mg/dL | minimum (nadir) blood glucose ([5]; STZ mice, s.c. 0.01 mg dasiglucagon, insulin challenge at 2 h, n=9, SEM): 41.1 ± 5.0 mg/dL | observations of death ([5]; after insulin overdose): 1 of 9

Molecule: glucagon
half-life in circulation [6]: approximately 5 min

Molecule: insulin detemir
duration of action [7]: 18 to 20 h

Continued, values first:

critical strain ([1]; hydrogel in buffer at pH 5): ~55% | strain range of linear behavior with G′>G″ ([1]; hydrogel in buffer at pH 5): 0.1-5% | pKa ([1]; inferred from rheology, TEM, CD, FTIR, ThT, read-out: pKa of glutamic acid residues in the assembled structures): 5 to 6 | storage modulus G′ ([1]; pH 4): 6.2 kPa | storage modulus G′ ([1]; pH 5): 5.1 kPa | storage modulus G′ ([1]; pH 6): 53.7 Pa | storage modulus G′ ([1]; pH 7): 4.3 Pa | storage modulus G′ ([1]; pH 8): 1.2 Pa | pH within hydrogel sample ([2]; 0 mg/dL glucose): 7.3 | pH within hydrogel sample ([2]; 200 mg/dL glucose): 5.5 | storage modulus G′ ([3]; 0 mg/dL glucose): 10.2 Pa | storage modulus G′ ([3]; 50 mg/dL glucose): 19.0 Pa | storage modulus G′ ([3]; 100 mg/dL glucose): 29.5 Pa | storage modulus G′ ([3]; 150 mg/dL glucose): 206.6 Pa | storage modulus G′ ([3]; 200 mg/dL glucose): 2.4 kPa | Δ Release % (pH 7-5 at 5 hr) [4]: 62.6%
Molecule: CCCCCCCCCC(=O)N[C@H](C(=O)N[C@H](C(=O)N[C@@H](C)C(=O)N[C@@H](C)C(=O)N[C@@H](CCC(=O)O)C(=O)N[C@@H](CCC(=O)O)C(N)=O)C(C)C)C(C)C [C10—V2A2E2] (Decanoyl-VVAAEE-NH2)

Δ Release % (pH 7-5 at 5 hr) [4]: 38.9%
Molecule: CCCCCCCCCCCCCCCC(=O)N[C@@H](C)C(=O)N[C@@H](C)C(=O)N[C@H](C(=O)N[C@H](C(=O)N[C@@H](CCC(=O)O)C(=O)N[C@@H](CCC(=O)O)C(N)=O)C(C)C)C(C)C [C16—A2V2E2] (Palmitoyl-AAVVEE-NH2)

Δ Release % (pH 7-5 at 5 hr) [4]: 43.6%
Molecule: CCCCCCCCCCCCCCCC(=O)N[C@H](C(=O)N[C@H](C(=O)N[C@@H](C)C(=O)N[C@@H](C)C(=O)N[C@@H](CCC(=O)O)C(=O)N[C@@H](CCC(=O)O)C(N)=O)C(C)C)C(C)C [C16—V2A2E2] (Palmitoyl-VVAAEE-NH2)

Δ Release % (pH 7-5 at 5 hr) [4]: 53.8%
Molecule: CCCCCCCCCCCCCCCC(=O)N[C@H](C(=O)N[C@@H](C)C(=O)N[C@@H](C)C(=O)N[C@@H](C)C(=O)N[C@@H](CCC(=O)O)C(=O)N[C@@H](CCC(=O)O)C(N)=O)C(C)C [C16—VA3E2] (Palmitoyl-VAAAEE-NH2)
